These results are taken from US20240350458A1, “14-3-3 PROTEIN MODULATORS AS ANTITUMOR AGENTS” (priority 2021, published 2024).

For one series, the system named is 410 human kinases. Kind of series: ProQinase kinase profiling. The format is biochemical. To be noted: at 1 and 0.1 μM.
The next series concerns NCI-H82. Kind of series: MTT proliferation assay, SCLC. The format is cell-based. The note with it: Homo sapiens. As for the experimental part:
(§1) The antiproliferative activity was assessed by MTT proliferation assay (Table III) The anticancer activity was also investigated in a rare and lethal cancer (i.e. anaplastic thyroid cancer) by the use of three ATC-derived cell lines (Sw, FRO, 8505c). Again, the IC50 value after 72 h exposure was in the range of 10 to 50 nM. The same trend was also observed in four melanoma cell lines A2058, M14 (genotype BRAFV600E), SKMEL 197 e MEWO (genotype BRAF wild-type).
(§2) Table III IC50 expressed in μM and Emax (at 30 μM) for FC86 after 72 h exposure, were calculated by MTT assay

Another series concerns NCI-H69. The experiment in a line: MTT proliferation assay, SCLC. The format is cell-based. To be noted: Homo sapiens. As to the method: as §1, §2
Series [1] has as its system CYP450 (CYP1A2, CYP2C9, CYP2C19, CYP2D6, CYP3A4). The experiment in a line: CYP450 inhibition (ADME-TOX profiling). It is filed as in vitro ADME. To be noted: 10 μM. As for the experimental part: To assess the ADME-TOX profile of selected compounds (FC91, FC86, FC85, a full panel of in vitro assays was performed as reported in Runfola et al. [Runfola M, Sestito S, Gul S, Chiellini G, Rapposelli S: Collecting data through high throughput in vitro early toxicity and off-target liability assays to rapidly identify limitations of novel thyromimetics. Data in brief 2020, 29:105206.]. Cytotoxic effects were evaluated on 4 different cell lines (U2OS, hTERT, HEK293, MCF-7) at 24 h and 48 h after treatment with tested compounds. Cardiac toxicity was assessed evaluating the inhibition effect of compounds on the hERG ion-channel, which is responsible of the withdrawn of several drugs in clinical trials. Metabolic interference was evaluated testing inhibitory effects of new compounds on five isoforms of CYP450 (CYP1A2, CYP2C9, CYP2C19, CYP2D6, CYP3A4). To assess off-target liabilities, the inhibitory effects have been assessed against several well-known off-targets. In particular, HDAC4, HDAC6, HDAC8, HDAC9, and SIRT7 were chosen as representatives of an undesirable epigenetic modulation. Moreover, compounds were screened against phosphodiesterase (PDE4C1), known for its role in cell survival and tumorigenesis. […] The data were collected and analyzed in the form of a traffic-light system using criteria shown below.

For series [2], the system named is 14-3-3. The experiment in a line: DARTS in U937 cells. The format is binding. The note with it: 50 nM, 2 h, MS and western blot. As to the method:
FIG. 4 represents DARTS experiments results as reported in example 6: Proteins obtained from U937 cells incubated with 50 nM FC86 or with the medium for 2 h underwent subtilisin-catalyzed digestion.
(§3) Current protocols in chemical biology 2011, 3:163-180]. […] The same DARTS experiments were also performed by incubating glioblastoma cell lines (U87MG) with subtoxic amounts of FC86 and data collected confirmed the 14-3-3 as target protein. (FIG. 5).
(§4) The identification of putative targets of FC86 was achieved by Drug Affinity Responsive Target Stability (DARTS) experiments. Cancer cells were incubated with a sub-toxic concentration (50 nM for U937 and 5 μM for U87MG) of FC86 for 2 h or with the medium (control cells). After the treatments, treated and control cells were collected and whole protein extracts were prepared by lysing cells in 20 mM Tris-HCl (pH 7.5), 150 mM NaCl, 1 mM EDTA, 1 mM EGTA, 1% NP-40, 1% sodium deoxycholate, 2.5 mM sodium pyrophosphate, 1 mM β-glycerophosphate, 1 mM Na3VO4, 1 μg/ml leupeptin. Protein concentration was determined by the Bradford protein assay using bovine serum albumin as standard. […] Parameters sets were: trypsin cleavage; carbamidomethylation of cysteine as a fixed modification and methionine oxidation as a variable modification; a maximum of two missed cleavages; false discovery rate (FDR), calculated by searching the decoy database, 0.05. […]

The test system of series [3] is 14-3-3. The experiment in a line: DARTS in U87MG cells. The format is binding. To be noted: 5 μM, 2 h, MS and western blot. As to the method:
FIG. 5 represents DARTS experiments results as reported in example 6: Proteins obtained from U87MG cells incubated with 5 μM of FC86 or with the medium for 2 h underwent subtilisin-catalyzed digestion.
as §3, §4

For another series, the system named is MEWO. The experiment in a line: Antiproliferative activity, melanoma cell line. The format is cell-based. To be noted: Homo sapiens; melanoma MEWO (BRAF wild-type); read-out: IC50 (95% confidence interval). As to the method: as §1
A further series relates to M14. Kind of series: Antiproliferative activity, melanoma cell line. It is filed as cell-based. To be noted: Homo sapiens; melanoma M14 (BRAFV600E); read-out: IC50 (95% confidence interval). As for the experimental part:
as §1

A further series concerns SKMEL 197. Kind of series: Antiproliferative activity, melanoma cell line. It is filed as cell-based. The note with it: melanoma SKMEL 197 (BRAF wild-type); read-out: IC50 (95% confidence interval). As for the experimental part:
as §1

A further series has as its system A2058. The experiment in a line: Antiproliferative activity, melanoma cell line. The format is cell-based. The note with it: Homo sapiens; melanoma A2058 (BRAFV600E); read-out: IC50 (95% confidence interval). As to the method:
as §1

The test system of another series is HCT-116. Kind of series: MTT proliferation assay, colon cancer. To be noted: Homo sapiens. It is filed as cell-based. As to the method: as §1, §2

pIC50: −log10 of the molar value. “Also recorded” adds a separate entry of the source.

As to `Cc1ccc(S(=O)(=O)Nc2ccc3c(c2)/C(=C/c2cccs2)C(=O)N3)cc1` [FC86, N-[(3Z)-2-oxo-3-(thiophene-2-ylmethylidene)-2,3-dihydro-1H-indol-5-yl]-4-methylbenzenesulfonamide], the “activity against 410 human kinases” value in the series with 410 human kinases is “lack of activity against any of them”. In addition, the Emax at 30 µM in the series with NCI-H82 (SCLC NCI-H82, 30 μM, 72 h) turned out to be 55%; in the series on NCI-H69 (SCLC NCI-H69, 30 μM, 72 h), 80%; in the series on HCT-116 (Colon HCT-116, 30 μM, 72 h), 62%. Moreover, the pIC50 in the series on NCI-H82 (SCLC NCI-H82, 72 h exposure) was 5.52; with NCI-H69 (SCLC NCI-H69, 72 h exposure) it was 5.85; in the series on MEWO, 7.24; in the series with M14, 7.85; in the series on SKMEL 197 it was 7.68; with A2058, 7.54. The molecule also gave a pIC50 in the series on HCT-116 (Colon HCT-116, 72 h exposure) of 5.80. Besides, the “inhibitory effect on CYP450 isoforms” value in series [1] was “did not show inhibitory effect”. Besides, the “resistance of 14-3-3 to subtilisin proteolysis (DARTS)” value in the series with 14-3-3 [2] is on record as “significant protection from proteolysis; also recorded: significant increment of resistance to proteolysis”; in the series on 14-3-3 [3], “significant increment of resistance to proteolysis”.
